Entries after “also recorded” stand apart in the source; their conditions may differ. No end group written: not given here. *: point of attachment. For = O=C*
Assays:
HeLa cells = assay: Cytotoxicity, LDH and MTT assays; type: cell-based, human; conditions: 4 h exposure, said to be similar to the other cell types (Fig. S7)
Description: Human skin fibroblasts (HSF, ATCC CRL-2522), adipose-derived stem cells (ASCs, ATCC PCS-500-011), and HeLa human epithelioid cervix carcinoma cells (ATCC CCL-2) were maintained in Dulbecco’s modified Eagle’s medium (DMEM, Sigma) containing 1 g/l glucose, 10% (v/v) foetal bovine serum (FBS), 1 U/ml penicillin, 1 μg/ml streptomycin, and 2.5 μg/ml amphotericin B. Murine P388/D1 monocyte/macrophage cells (ATCC CCL-46) and murine RAW264.7 macrophage-like cells (ATCC TIB-71) were cultured in DMEM containing 4.5 g/l glucose, 5% (v/v) FBS, and antibiotics, as indicated above. Keratinocytes from human skin were grown in KBM Gold Medium (Lonza). All cells were incubated in standard conditions (5% CO2, 37 °C, >95% humidity). […] After a 30-min incubation (RT, in the dark), the reaction was stopped, and the absorbance was measured with a microplate reader (PowerWave X, BioTek Instruments) at 490 nm, followed by subtraction of the absorbance reference value at 690 nm. […] The absorbance of solubilized purple formazan was measured at 540 nm, followed by subtraction of the absorbance reference value at 690 nm. […] The amount of released haemoglobin was spectrophotometrically determined at 540 nm and compared with a positive control (erythrocytes lysed with 1% sodium dodecyl sulphate).

[1] = Conformational stability by CD, ellipticity at 220 nm against temperature; type: physicochemical; conditions: 125 μg/ml in PBS, 20–90 °C at 1 °C/min
Description: The circular dichroism (CD) spectra of BacSp222 (125 μg/ml in PBS) were recorded using a J-715 spectropolarimeter (Jasco). The spectra were recorded at room temperature in the range 190–240 nm and were averaged over three independent passes. The amount of secondary structures was estimated by fitting the measured spectra to the reference spectra of natural native proteins (Prot, Jasco) or synthetic polypeptides (Yang, Jasco). To evaluate the conformational stability of the BacSp222 molecule at different temperatures, the ellipticity of the polarized light was recorded at 220 nm over the temperature range 20–90 °C at 1 °C/min increments.

FPRL-1 = target: T1, FPRL-1 (Homo sapiens, UniProt P25090); assay: Formyl peptide receptor assay, cAMP-GLO, recombinant CHO-K1 cells; type: cell-based; conditions: 10 pM–5 μM BacSp222, CHO-K1 cells overexpressing FPRL-1, cAMP-GLO; fMLP positive control (data not shown)
T1 construct: host or cells: CHO-K1
Description: Activation of the cellular formyl-peptide receptor was assayed using cAMPZen FroZen N-formyl peptide (FPRL1) human recombinant CHO-K1 cells (Perkin-Elmer) and a cAMP-GLO bioluminescent assay (Promega) largely according to the protocols provided by the manufacturers. Formyl-methionyl-leucyl-phenylalanine peptide (fMLP, Sigma) was used as a positive control, and the BacSp222 concentrations tested were 0.01, 0.1, 1.0, 10, 100, 1000, and 5000 nM.

B. subtilis = assay: Bactericidal test, plating on TSA after incubation; type: cell-based, Bacillus subtilis; conditions: 1 × 10^4 CFU incubated with 1 μM bacteriocin for 30 minutes (data not shown)
S. aureus = assay: Bactericidal test, plating on TSA after incubation; type: cell-based, Staphylococcus aureus; conditions: 1 × 10^4 CFU incubated with 1 μM bacteriocin for 30 minutes (data not shown)
E. coli DH5α (pALCP2G) = assay: GFP release assay; type: cell-based, Escherichia coli; conditions: 2 × 10^6 CFU in PBS, 1 h 37 °C, 0.23 to 15 μM BacSp222, fluorescence of supernatant 480/510 nm
Description: (§1) The bacteria transformed with GFP-encoding plasmids (pCN68[59] for S. aureus RN4220; pALCP2G[60] for B. subtilis 1A751[61] and E. coli DH5α) were grown overnight in TSB supplemented with appropriate antibiotics, washed twice and finally suspended in PBS. Fifty microliters of the suspensions containing 2 × 10^6 CFU of bacteria were then incubated for 1 h at 37 °C with serial dilutions of BacSp222 at concentrations ranging from 0.23 to 15 μM. Then, the bacteria were spun down, and the fluorescence in the supernatant was determined (Synergy H1 microplate reader, BioTek, 480/510 nm excitation/emission wavelengths). As the controls for 100% GFP release, S. aureus and B. subtilis were lysed using lysostaphin and chicken egg white lysozyme (Sigma), respectively, whereas the E. coli cells were disrupted by ultrasonication.

[2] = tested on: B. subtilis 1A751 (pALCP2G); assay: GFP release assay; type: cell-based, Bacillus subtilis; conditions: 2 × 10^6 CFU in PBS, 1 h 37 °C, 0.23 to 15 μM BacSp222, fluorescence of supernatant 480/510 nm
Description: as §1

T1 sequence (P25090 whole entry): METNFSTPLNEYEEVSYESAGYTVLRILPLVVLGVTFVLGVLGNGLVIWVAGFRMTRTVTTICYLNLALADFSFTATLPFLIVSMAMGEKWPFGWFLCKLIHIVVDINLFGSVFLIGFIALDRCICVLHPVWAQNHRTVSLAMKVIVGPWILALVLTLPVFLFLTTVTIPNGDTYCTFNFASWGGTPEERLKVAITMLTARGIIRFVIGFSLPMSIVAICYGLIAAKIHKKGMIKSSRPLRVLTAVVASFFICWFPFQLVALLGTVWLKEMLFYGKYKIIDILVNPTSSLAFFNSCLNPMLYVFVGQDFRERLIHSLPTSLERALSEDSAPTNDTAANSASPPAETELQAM

For-MAGLLRFLLSKGRALYNWAKSHVGKVWEWLKSGATYEQIKEWIENALGWR [BacSp222]
cytotoxic effect (HeLa cells): sigmoidal, dose-dependent cytotoxic effect | ellipticity at 220 nm at elevated temperatures [1]: lack of changes in ellipticity at 220 nm, up to 90 °C | stimulation of formyl-peptide receptor (FPRL-1): not able to stimulate; also recorded: did not activate | colonies after plating on TSA (B. subtilis): complete absence of the colonies | colonies after plating on TSA (S. aureus): complete absence of the colonies | leakage of GFP from recombinant cells (E. coli DH5α (pALCP2G)): not | leakage of GFP from recombinant cells [2]: dose-dependent leakage of GFP was observed
